Holding throughout (format): biochemical
In assay [1] the target is T1, human HPK1 (MAP4K1) (Homo sapiens, UniProt Q92918).
T1 construct: human HPK1 (aa 1-346); purchased Invitrogen PV6355
T1 sequence (Q92918 1-346): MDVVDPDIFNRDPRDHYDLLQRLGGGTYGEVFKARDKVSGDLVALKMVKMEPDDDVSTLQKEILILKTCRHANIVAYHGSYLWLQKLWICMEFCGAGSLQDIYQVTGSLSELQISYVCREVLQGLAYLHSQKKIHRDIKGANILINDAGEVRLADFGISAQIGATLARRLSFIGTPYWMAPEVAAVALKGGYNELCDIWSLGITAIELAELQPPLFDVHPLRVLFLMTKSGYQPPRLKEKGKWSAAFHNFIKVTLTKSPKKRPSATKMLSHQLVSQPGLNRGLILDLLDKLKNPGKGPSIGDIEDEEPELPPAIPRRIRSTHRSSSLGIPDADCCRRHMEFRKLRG
Kind of assay: HPK1 inhibition assay (indirect ELISA). To be noted: GST-HPK1 0.6 nM, 12 μM ATP; read-out: IC50 Range HPK1. A digest of the protocol:
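GST-tagged human HPK1 (aa 1-346, 0.6 nM) phosphorylated MBP-coated wells with 12 μM ATP in MOPS pH 7.2/Mg2+ buffer for 30 min after 15-min compound preincubation; phospho-Thr detected by antibody ELISA with TMB, 450 nm. Tested at 10 μM or 10-point titration (typically 50-0.1 μM); IC50 by 4-parameter logistic fit.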
Background: ELISA stands for enzyme-linked immunosorbent assay.

The target of assay [2] is T2, FLT3 (Homo sapiens, UniProt P36888).
T2 construct: purchased Invitrogen PV3182
T2 sequence (P36888 27-993): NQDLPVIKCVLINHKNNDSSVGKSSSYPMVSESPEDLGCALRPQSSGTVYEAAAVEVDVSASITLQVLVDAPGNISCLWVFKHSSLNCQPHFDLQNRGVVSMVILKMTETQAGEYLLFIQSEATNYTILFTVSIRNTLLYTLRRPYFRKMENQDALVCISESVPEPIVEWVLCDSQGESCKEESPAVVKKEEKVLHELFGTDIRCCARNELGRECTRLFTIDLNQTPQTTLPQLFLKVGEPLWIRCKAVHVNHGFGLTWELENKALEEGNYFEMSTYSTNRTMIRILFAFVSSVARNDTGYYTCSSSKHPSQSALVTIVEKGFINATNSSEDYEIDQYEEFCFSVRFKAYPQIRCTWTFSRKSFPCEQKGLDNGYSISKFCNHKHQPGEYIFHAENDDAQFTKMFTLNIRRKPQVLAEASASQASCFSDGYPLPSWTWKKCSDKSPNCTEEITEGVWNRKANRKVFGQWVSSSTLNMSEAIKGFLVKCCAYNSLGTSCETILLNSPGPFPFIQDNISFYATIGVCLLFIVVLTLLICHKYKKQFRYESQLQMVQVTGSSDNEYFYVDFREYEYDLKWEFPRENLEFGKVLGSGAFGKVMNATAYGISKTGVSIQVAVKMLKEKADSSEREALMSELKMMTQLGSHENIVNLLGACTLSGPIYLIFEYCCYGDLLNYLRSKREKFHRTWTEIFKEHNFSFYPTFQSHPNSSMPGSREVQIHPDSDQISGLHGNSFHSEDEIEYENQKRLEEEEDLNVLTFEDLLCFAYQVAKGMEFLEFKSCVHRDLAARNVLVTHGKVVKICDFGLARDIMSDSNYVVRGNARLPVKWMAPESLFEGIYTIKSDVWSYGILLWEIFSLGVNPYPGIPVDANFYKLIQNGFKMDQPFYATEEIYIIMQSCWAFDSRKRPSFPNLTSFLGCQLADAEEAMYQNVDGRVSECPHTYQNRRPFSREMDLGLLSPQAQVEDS
Kind of assay: FLT3 inhibition, FRET based Z'-LYTE Kinase Assay. The note with it: 1 nM FLT3, 940 μM ATP; read-out: IC50 Range Flt3. The method, then: (§1) FLT3 and LCK compound inhibition were determined using FRET based Z′-LYTE Kinase Assay Kit with Tyrosine 2 peptide as the substrate (Invitrogen cat #PV3191). […] The % inhibition values were determined according to the manufacturer's directions and IC50 values were obtained using a non-linear 4 point logistic curve fit (XLfit4, IDBS).

Assay [3] has as its target T3, LCK (Homo sapiens, UniProt P06239).
T3 construct: purchased Invitrogen P3043
Nature of the assay: LCK inhibition, FRET based Z'-LYTE Kinase Assay. The note with it: 25 nM LCK, 180 μM ATP; read-out: IC50 Range Lck. The procedure: as §1

T3 sequence (P06239 whole entry, species assumed): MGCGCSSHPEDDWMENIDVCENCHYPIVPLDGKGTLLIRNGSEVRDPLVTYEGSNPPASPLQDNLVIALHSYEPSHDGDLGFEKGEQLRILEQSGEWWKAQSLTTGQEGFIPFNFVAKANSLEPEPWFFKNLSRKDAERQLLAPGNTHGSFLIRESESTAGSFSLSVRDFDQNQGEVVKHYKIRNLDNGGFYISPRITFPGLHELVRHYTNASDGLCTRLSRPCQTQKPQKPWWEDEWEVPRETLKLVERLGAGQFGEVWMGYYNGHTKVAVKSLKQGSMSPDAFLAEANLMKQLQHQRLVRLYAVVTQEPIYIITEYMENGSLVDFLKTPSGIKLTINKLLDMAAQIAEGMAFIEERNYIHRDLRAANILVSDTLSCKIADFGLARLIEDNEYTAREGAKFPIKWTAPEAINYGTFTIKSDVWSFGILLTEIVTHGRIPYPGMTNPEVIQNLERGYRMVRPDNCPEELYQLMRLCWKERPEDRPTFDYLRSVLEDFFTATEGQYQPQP

The IC50 is the concentration needed to halve the response being measured. `CN1CCN(c2ccc3nc(-c4c(NC5CCOCC5)c5sccc5[nH]c4=O)[nH]c3c2)CC1` [Example A35, 6-(6-(4-methylpiperazin-1-yl)-1H-benzo[d]imidazol-2-yl)-7-((tetrahydro-2H-pyran-4-yl)amino)thieno[3,2-b]pyridin-5(4H)-one]: the concentration for half-maximal inhibition (IC50) in assay [1], in assay [2] and in assay [3] was at most 50 nM in each case.
Take `Nc1c(-c2nc3ccc(N4CCN(C5COC5)CC4)cc3[nH]2)c(=O)[nH]c2sccc12` [Example A65, 4-amino-5-(6-(4-(oxetan-3-yl)piperazin-1-yl)-1H-benzo[d]imidazol-2-yl)thieno[2,3-b]pyridin-6(7H)-one]: the half-maximal inhibitory concentration (IC50) in assay [1] is at most 50 nM; in assay [2], at most 50 nM; in assay [3] it was 50 to 500 nM.
As to `Cc1cc2[nH]c(-c3c(N)c4ccsc4[nH]c3=O)nc2cc1N1CCN(C)CC1` [Example A61, 4-amino-5-(6-methyl-5-(4-methylpiperazin-1-yl)-1H-benzo[d]imidazol-2-yl)thieno[2,3-b]pyridin-6(7H)-one], the values for the IC50 in assay [1], in assay [2] and in assay [3] were at most 50 nM, at most 50 nM and 50 to 500 nM, respectively.
Regarding `Cc1csc2[nH]c(=O)c(-c3nc4ccc(N5CCN(C)CC5)cc4[nH]3)c(N)c12` [Example A2, 4-amino-3-methyl-5-(6-(4-methylpiperazin-1-yl)-1H-benzo[d]imidazol-2-yl) thieno[2,3-b]pyridin-6(7H)-one], the figures for the IC50 in assay [1], in assay [2] and in assay [3] were at most 50 nM, at most 50 nM and 50 to 500 nM, respectively.
Take `CN1CCN(c2ccc3nc(-c4c(NCC5CCOCC5)c5sccc5[nH]c4=O)[nH]c3c2)CC1` [Example A38, 6-(6-(4-methylpiperazin-1-yl)-1H-benzo[d]imidazol-2-yl)-7-(((tetrahydro-2H-pyran-4-yl)methyl)amino)thieno[3,2-b]pyridin-5(4H)-one]: the IC50 in assay [1], in assay [2] and in assay [3] was at most 50 nM each time.
As for `CN1CCN(c2ccc3nc(-c4c(N[C@H]5CCC[C@@H]5O)c5ccsc5[nH]c4=O)[nH]c3c2)CC1` [Example A66, 4-(((1S,2S)-2-hydroxycyclopentyl)amino)-5-(6-(4-methylpiperazin-1-yl)-1H-benzo[d]imidazol-2-yl)thieno[2,3-b]pyridin-6(7H)-one], the IC50 in assay [1], in assay [2] and in assay [3] was at most 50 nM each time.
For `C[C@@H]1CN(c2ccc3nc(-c4c(NC5CCOCC5)c5sccc5[nH]c4=O)[nH]c3c2)C[C@H](C)N1C` [Example A48, 7-((tetrahydro-2H-pyran-4-yl)amino)-6-(6-(3r,5s)-rel-3,4,5-trimethylpiperazin-1-yl)-1H-benzo[d]imidazol-2-yl)thieno[3,2-b]pyridin-5(4H)-one], the 50% inhibitory concentration (IC50) in assay [1], in assay [2] and in assay [3] was at most 50 nM in each case.
As for `CN1CCN(c2ccc3nc(-c4c(NC5CCN(C=O)CC5)c5ccsc5[nH]c4=O)[nH]c3c2)CC1` [Example A17, 4-((5-(6-(4-methylpiperazin-1-yl)-1H-benzo[d]imidazol-2-yl)-6-oxo-6,7-dihydrothieno[2,3-b]pyridin-4-yl)amino)piperidine-1-carbaldehyde], the IC50 in assay [1], in assay [2] and in assay [3] was at most 50 nM each time.
`CN1CCN(c2ccc3nc(-c4c(N[C@@H]5CCC[C@H]5O)c5ccsc5[nH]c4=O)[nH]c3c2)CC1` [Example A67, 4-(((1R,2R)-2-hydroxycyclopentyl)amino)-5-(6-(4-methylpiperazin-1-yl)-1H-benzo[d]imidazol-2-yl)thieno[2,3-b]pyridin-6(7H)-one]: the IC50 in assay [1] is at most 50 nM; in assay [2], at most 50 nM; in assay [3], 50 to 500 nM.
In the case of `CN1CCN(c2ccc3nc(-c4c(N[C@@H]5CC[C@@H](O)C5)c5ccsc5[nH]c4=O)[nH]c3c2)CC1` (relative stereo) [Example A9, 4-(((1R*,3R*)-3-hydroxycyclopentyl)amino)-5-(6-(4-methylpiperazin-1-yl)-1H-benzo[d]imidazol-2-yl)thieno[2,3-b]pyridin-6(7H)-one], the IC50 in assay [1], in assay [2] and in assay [3] was at most 50 nM throughout.
Consider `Nc1c(-c2nc3ccc(N4CCOCC4)cc3[nH]2)c(=O)[nH]c2ccsc12` [Example A31, 7-amino-6-(6-morpholino-1H-benzo[d]imidazol-2-yl)thieno[3,2-b]pyridin-5(4H)-one], for which the half-maximal inhibitory concentration (IC50) was at most 50 nM in assay [1], at most 50 nM in assay [2] and 50 to 500 nM in assay [3].
In the case of `CN1CCN(c2ccc3nc(-c4c(NC5CCCC5)c5cscc5[nH]c4=O)[nH]c3c2)CC1` [Example A24, 4-(cyclopentylamino)-3-(6-(4-methylpiperazin-1-yl)-1H-benzo[d]imidazol-2-yl)thieno[3,4-b]pyridin-2(1H)-one], the half-inhibitory concentration (IC50) in assay [1], in assay [2] and in assay [3] was at most 50 nM in each case.
Take `CN1CCN(c2ccc3nc(-c4c(N[C@@H]5CCNC[C@H]5F)c5ccsc5[nH]c4=O)[nH]c3c2)CC1` [Example A14, 4-(((3R,4R)-3-fluoropiperidin-4-yl)amino)-5-(6-(4-methylpiperazin-1-yl)-1H-benzo[d]imidazol-2-yl)thieno[2,3-b]pyridin-6(7H)-one]: the IC50 in assay [1], in assay [2] and in assay [3] was at most 50 nM throughout.
In the case of `CN1CCN(c2ccc3nc(-c4c(N[C@H]5CCCC[C@H]5O)c5sccc5[nH]c4=O)[nH]c3c2)CC1` [Example A44, 7-(((1S,2R)-2-hydroxycyclohexyl)amino)-6-(6-(4-methylpiperazin-1-yl)-1H-benzo[d]imidazol-2-yl)thieno[3,2-b]pyridin-5(4H)-one], the half-inhibitory concentration (IC50) in assay [1], in assay [2] and in assay [3] was at most 50 nM in each case.
Consider `CN1CCN(c2ccc3nc(-c4c(NC5CCNCC5)c5sccc5[nH]c4=O)[nH]c3c2)CC1` [Example A39, 6-(6-(4-methylpiperazin-1-yl)-1H-benzo[d]imidazol-2-yl)-7-(piperidin-4-ylamino)thieno[3,2-b]pyridin-5(4H)-one], for which the IC50 in assay [1], in assay [2] and in assay [3] was at most 50 nM throughout.
`Nc1c(-c2nc3ccc(N4CCNCC4)cc3[nH]2)c(=O)[nH]c2sccc12` [Example A64, 4-amino-5-(6-(piperazin-1-yl)-1H-benzo[d]imidazol-2-yl)thieno[2,3-b]pyridin-6(7H)-one]: the IC50 was at most 50 nM in assay [1], at most 50 nM in assay [2] and 50 to 500 nM in assay [3].
For `CN1CCC(Nc2c(-c3nc4ccc(N5CCOCC5)cc4[nH]3)c(=O)[nH]c3ccsc23)CC1` [Example A45, 7((1-methylpiperidin-4-yl)amino)-6-(6-morpholino-1H-benzo[d]imidazol-2-yl)thieno[3,2-b]pyridin-5(4H)-one], the half-inhibitory concentration (IC50) in assay [1], in assay [2] and in assay [3] was at most 50 nM throughout.
As for `CN1CCN(c2ccc3nc(-c4c(N[C@@H]5CC[C@H](O)C5)c5ccsc5[nH]c4=O)[nH]c3c2)CC1` (relative stereo) [Example A13, 4-(((1R*,3S*)-3-hydroxycyclopentyl)amino)-5-(6-(4-methylpiperazin-1-yl)-1H-benzo[d]imidazol-2-yl)thieno[2,3-b]pyridin-6(7H)-one], the IC50 was at most 50 nM in assay [1], at most 50 nM in assay [2] and 50 to 500 nM in assay [3].
